# Biological target: Protein kinase C alpha type (Homo sapiens, UniProt P17252)
# Experiment: Inhibition of human recombinant PKCalpha
row,IC50 [µM],SMILES
1,2.83,OC[C@H]1O[C@@H](O[C@H](CCCCc2ccc(O)c(O)c2)CCc2ccc(O)c(O)c2)[C@H](O)[C@@H](O)[C@@H]1O
2,4.81,Oc1ccc(CCCC[C@@H](O)CCc2ccc(O)c(O)c2)cc1O
3,4.26,O=C(/C=C/CCc1ccc(O)c(O)c1)CCc1ccc(O)c(O)c1 [DEHYDROHIRSUTANONOL]
4,13.3,O=C(CCc1ccc(O)c(O)c1)C[C@@H](O)CCc1ccc(O)c(O)c1 [HIRSUTANONOL]
5,18,O=C(CCc1ccc(O)c(O)c1)C[C@H](CCc1ccc(O)c(O)c1)O[C@@H]1OC[C@@H](O)[C@H](O)[C@H]1O [OREGONIN]

# Reference: ChEMBL document CHEMBL1151313, “Isolation and structure elucidation of new PKCalpha inhibitors from Pinus flexilis” (J Nat Prod, 1998)
